Values of other authors in patent publication US20080038318A1, “Composition; Use Of A Composition And A Method For Treating Obesity” (priority 2004, published 2008).

Tested on: normal and obese volunteers
Settings: in vivo

CCCCCCCCCCC[C@@H](C[C@@H]1OC(=O)[C@H]1CCCCCC)OC(=O)[C@H](CC(C)C)NC=O [orlistat]
reduction of the absorption of triacylglycerols: 30%
